# Values joined by “and” are separate entries in the source; they are usually repeats but may differ in a detail not shown here. Equal values may be shown once.
# Legend:
# [1] = system: SVMP bioactivity of the four active venoms (E. ocellatus, E. carinatus, B. asper, B. arietans); test: in vitro kinetic fluorogenic SVMP assay, viper venoms overall; type: biochemical
# Method: (§1) The SVMP assay measuring metalloproteinase activity and the plasma assay measuring coagulation in the presence or absence of venoms and inhibitors were performed as previously described. The SVMP assay kinetically measured cleavage of a quenched fluorogenic substrate (ES010, R&D Biosystems) by venom in the presence or absence of inhibitors.
# (§2) Briefly, 10 µl of the substrate (supplied as a 6.2 mM stock) was used per 5 ml reaction buffer (150 mM NaCl, 50 mM Tris-Cl pH 7.5). Reactions consisted of 10 µl of venom ± inhibitors in PBS and 90 µl of substrate. Venoms were used at 1 µg/reaction and final inhibitor concentrations ranged from 150 µM to 150 nM. Samples were preincubated for 30 min at 37 °C and pipetted in triplicate into 384-well plates (Greiner). Thereafter, data was collected on an Omega FLUOstar (BMG Labtech) instrument at an excitation wavelength of 320 nm and emission wavelength of 405 nm at 25 °C for 1 h. The areas under the curve (AUCs) in the 0–40 min interval were calculated for each sample using MARS data analysis software v3.31 (BMG Labtech); this time point was chosen as the time where all fluorescence curves had reached a plateau (maximum fluorescence). For comparing venom-only samples, the means of at least three independent experimental runs for each condition, expressed as AUCs (n ≥ 3), were plotted at each inhibitor concentration with standard error of the mean (SEM). To determine inhibitor efficacy, the AUCs for each of the samples that consisted of venom + inhibitors were transformed and expressed as percentages of the venom-only sample (where the venom was 100%). The negative control (PBS-only) was also expressed relative to the venom, and the variation in background was presented as an interval delineated by the lowest and highest values in the PBS-only samples across concentrations and inhibitors for a specific venom.
# [2] = system: Bitis arietans venom SVMP activity; test: fluorogenic SVMP assay; type: biochemical; conditions: independent repeats
# Method: as §1, §2
# [3] = system: Bothrops asper venom SVMP activity; test: fluorogenic SVMP assay; type: biochemical; conditions: independent repeats
# Method: as §1, §2
# [4] = system: Echis carinatus venom SVMP activity; test: fluorogenic SVMP assay; type: biochemical; conditions: independent repeats
# Method: as §1, §2
# [5] = system: Echis ocellatus venom SVMP activity; test: fluorogenic SVMP assay; type: biochemical; conditions: independent repeats
# Method: as §1, §2
# [6] = system: procoagulant activity of viper venoms (citrated bovine plasma); test: plasma clotting assay, viper venoms overall; type: biochemical
# Method: (§3) We used a previously developed plasma clotting assay[35] to measure venom-induced coagulation. Briefly, 100 ng of each venom was incubated at 37 °C for 30 min in the presence or absence of inhibitors (150 µM to 150 nM final concentrations). The final reaction consisted of 10 µl venom ± inhibitors in PBS, 20 µl 20 mM CaCl2, and 20 µl citrated bovine plasma (VWR). The samples were pipetted in triplicate into 384-well plates, and absorbance monitored at 595 nm for 2 h at 25 °C on an Omega FLUOstar instrument. We calculated the maximum clotting velocity of each of the curves as per clot waveform analysis, by calculating the maximum of the first derivative. The means of at least three independent experimental runs for each condition were plotted at each inhibitor concentration with SEMs.
# [7] = system: procoagulant activity of Bothrops asper venom (citrated bovine plasma); test: plasma clotting assay; type: biochemical; conditions: Bothrops asper venom 100 ng, independent repeats
# Method: as §3
# [8] = system: procoagulant activity of Echis ocellatus venom (citrated bovine plasma); test: plasma clotting assay; type: biochemical; conditions: Echis ocellatus venom 100 ng, independent repeats
# Method: as §3
# [9] = system: procoagulant activity of Echis carinatus venom (citrated bovine plasma); test: plasma clotting assay; type: biochemical; set-up: key: max of first derivative of A595 clot curve (max clotting velocity); conditions: Echis carinatus venom 100 ng, independent repeats
# Method: as §3
# [10] = system: coagulopathic activity of Daboia russelii venom (citrated bovine plasma); test: plasma clotting assay; type: biochemical; set-up: key to maximum clotting velocity: max of first derivative of A595 clot curve (max clotting velocity); conditions: for maximum clotting velocity: Daboia russelii venom 100 ng, independent repeats
# Method: as §3
# E. ocellatus venom [11] = conditions: cited from earlier work
# [12] = system: SVSP activity of viper venoms; test: chromogenic SVSP assay, viper venoms overall; type: biochemical
# Method: (§4) SVSP activity was measured using a chromogenic substrate (S-2288, Cambridge Bioscience). Reactions consisted of 15 µl of venom ± inhibitors in PBS, 15 µl of assay buffer (100 mM Tris-Cl pH 8.5, 100 mM NaCl) and 15 µl of 6 mM substrate. A positive venom-only control, a negative control containing 15 µl of PBS and a drug-only control (where applicable) were also included. The final substrate concentration was 2 mM and venoms were used at 1 µg/reaction. When testing inhibitors, these were preincubated with the venoms for 30 min at 37 °C with concentrations ranging from 150 µM to 150 nM (tenfold dilutions). The samples were pipetted in triplicate into 384-well plates (Greiner) and absorbance at 405 nm was monitored kinetically for ~30 min on an Omega FLUOstar instrument (BMG Labtech). Given the linearity of the resulting slopes, negative control readings (PBS) were subtracted from each reading and the rate of substrate consumption calculated by measuring the slope between 0 and 5 min. The mean rates (expressed as ΔAbs/time/µg venom) of at least three independent experimental runs for each condition (n ≥ 3) were plotted at each inhibitor concentration with SEMs using Prism v8 software (GraphPad).
# [13] = system: Bitis arietans venom SVSP activity; test: chromogenic SVSP assay; type: biochemical; conditions: independent repeats
# Method: as §4
# [14] = system: Bothrops asper venom SVSP activity; test: chromogenic SVSP assay; type: biochemical; conditions: independent repeats
# Method: as §4
# [15] = system: Echis carinatus venom SVSP activity; test: chromogenic SVSP assay; type: biochemical; conditions: independent repeats
# Method: as §4
# [16] = system: Echis ocellatus venom SVSP activity; test: chromogenic SVSP assay; type: biochemical; conditions: nafamostat 150 nM, independent repeats
# Method: as §4
# plasma coagulation = type: biochemical, bovine; conditions: no venom; high doses (150 µM)
# Method: as §3
# E. ocellatus venom [17] = test: in vivo preincubation model of envenoming (i.v.); set-up: species or system CD-1 mice
# Method: All animal experiments were conducted using protocols approved by the Animal Welfare and Ethical Review Boards of the Liverpool School of Tropical Medicine and the University of Liverpool, and performed in specific pathogen-free conditions under licensed approval (PPL #4003718 and #P5846F90) of the UK Home Office and in accordance with the Animal [Scientific Procedures] Act 1986 and institutional guidance on animal care. All experimental animals (18–20 g [4–5 weeks old], male, CD-1 mice, Charles River, UK) were housed in groups of five with environmental enrichment, water and food ad libitum and their health monitored daily during acclimatization. The experimental design was based upon 3R-refined WHO-recommended protocols[28],[41], with animals randomized and observers being blinded to the experimental condition. The median lethal doses (venom LD50) used for E. ocellatus (Nigeria), E. carinatus (India), B. asper (Costa Rica), D. russelii (Sri Lanka) and B. arietans (Nigeria) venoms were previously determined[25],[41],[44],[45].
# All experimental doses were prepared to a volume of 200 µl in PBS and incubated at 37 °C for 30 min prior to their intravenous injection via the tail vein. Animals were monitored for 6 h, and euthanized via rising concentrations of CO2 upon observation of previously defined humane end points that are predicators of lethality (e.g., seizure, pulmonary distress, paralysis, hemorrhage)[28]. Deaths, time of death, and survivors were recorded; where death/time of death actually represents the implementation of euthanasia based on defined humane end points.
# For all experimental animals described above, blood samples were collected via cardiac puncture immediately post-euthanasia. Plasma was separated by centrifugation at 400 × g for 10 min and stored at −80 °C. We assessed the levels of thrombin-antithrombin complexes (TAT) and soluble thrombomodulin using mouse ELISA Kits (ab137994 and ab209880, Abcam), following the manufacturer’s protocol. All available plasma samples (some were unobtainable via cardiac puncture due to extensive internal hemorrhage) were assessed if the time of death within the group varied, whereas three samples were randomly chosen if the time of death was the same (e.g., either very rapid death within 2 min, or survival until the end of the experiment [360 min or 24 h]). The resulting data was plotted as the median of duplicate measurements for each animal and is presented with standard deviations (SDs).
# [18] = cited from earlier work
smiles,measurement,setting,value
"O=S(=O)(O)CC(S)CS (stereo not drawn) [DMPS, 2,3-dimercapto-1-propanesulfonic acid]",lowest concentration generally effective / required to fully inhibit SVMP activities,[1]; across the active venoms,15 µM
same,IC50,"[1]; range across the active venoms, read-out: IC50s, inhibition of venom SVMP activity",0.29 to 4.19 µM
same,"SVMP activity, percentage of the venom-only sample",[2]; inhibitor 15 µM,22.3961% and 20.1207% and 18.6801%
same,"SVMP activity, percentage of the venom-only sample",[2]; inhibitor 150 µM,20.1452% and 19.0476% and 17.6656%
same,"SVMP activity, percentage of the venom-only sample",[3]; inhibitor 15 µM,34.6541% and 41.4523% and 39.2938%
same,"SVMP activity, percentage of the venom-only sample",[3]; inhibitor 150 µM,33.142% and 30.6392% and 28.5849%
same,"SVMP activity, percentage of the venom-only sample",[4]; inhibitor 15 µM,24.5956% and 26.5777% and 20.6819%
same,"SVMP activity, percentage of the venom-only sample",[4]; inhibitor 150 µM,13.0224% and 14.752% and 12.5581%
same,"SVMP activity, percentage of the venom-only sample",[5]; inhibitor 15 µM,18.6328% and 21.5132% and 17.5016%
same,"SVMP activity, percentage of the venom-only sample",[5]; inhibitor 150 µM,15.3569% and 14.8369% and 16.006%
same,neutralizing the procoagulant activities,"[6]; E. ocellatus, E. carinatus and B. asper venoms, highest dose 150 µM",effective
same,IC50,"[6]; range across all venoms, lower end of dimercaprol and marimastat ranges given as < 0.15, read-out: IC50, inhibition of procoagulant venom activity",0.8 to 25.9 µM
same,maximum clotting velocity,[7]; inhibitor 15 µM,0.04261 and 0.04406 and 0.05475
same,maximum clotting velocity,[7]; inhibitor 150 µM,0.03159 and 0.02725 and 0.0282
same,maximum clotting velocity,[8]; inhibitor 15 µM,0.09233 and 0.098 and 0.085
same,maximum clotting velocity,[8]; inhibitor 150 µM,0.03733 and 0.04867 and 0.039
same,maximum clotting velocity,[9]; inhibitor 15 µM,0.04133 and 0.038 and 0.05133
same,maximum clotting velocity,[9]; inhibitor 150 µM,0.033 and 0.04 and 0.03533
same,neutralizing the procoagulant activity,[10]; D. russelii venom,ineffective
same,maximum clotting velocity,[10]; inhibitor 15 µM,0.1186 and 0.1081 and 0.1102
same,maximum clotting velocity,[10]; inhibitor 150 µM,0.07853 and 0.08841 and 0.07869
same,survival time of individual animals (Kaplan-Meier source data),"E. ocellatus venom [11]; 90 µg E. ocellatus venom i.p., 120 µg DMPS i.p. 15 mins later, D + AV also 168 µl EchiTAbG i.v. 1 hr after venom, 1 = death (=), 0 = survived (>=), ref Albulescu et al.1",12.6 h and 21.51 h and 15.51 h and ≥ 24 h
same,duration for which lethality was prevented,"E. ocellatus venom [11]; same preclinical model, E. ocellatus",~ 8 h
N=C(N)c1ccc2cc(OC(=O)c3ccc(N=C(N)N)cc3)ccc2c1 [nafamostat],inhibition of SVSP activity,"[12]; highest doses 150 and 15 µM, irrespective of venom",completely inhibiting SVSP activity
same,IC50,"[12]; range across venoms, read-out: IC50s, inhibition of venom SVSP activity",0.12 to 1.07 µM
same,"SVSP activity, rate of substrate consumption",[13]; nafamostat 150 nM,0.0636 ΔAbs/time/µg venom and 0.06929 ΔAbs/time/µg venom and 0.08741 ΔAbs/time/µg venom
same,"SVSP activity, rate of substrate consumption",[13]; nafamostat 15 uM,0.0014 ΔAbs/time/µg venom and 0.001071 ΔAbs/time/µg venom and 0.001786 ΔAbs/time/µg venom
same,"SVSP activity, rate of substrate consumption",[14]; nafamostat 150 nM,0.03413 ΔAbs/time/µg venom and 0.03851 ΔAbs/time/µg venom and 0.04036 ΔAbs/time/µg venom
same,"SVSP activity, rate of substrate consumption",[14]; nafamostat 15 uM,0.003733 ΔAbs/time/µg venom and 0.002738 ΔAbs/time/µg venom and 0.004018 ΔAbs/time/µg venom
same,"SVSP activity, rate of substrate consumption",[15]; nafamostat 150 nM,0.08494 ΔAbs/time/µg venom and 0.09756 ΔAbs/time/µg venom and 0.1079 ΔAbs/time/µg venom
same,"SVSP activity, rate of substrate consumption",[15]; nafamostat 15 uM,0.001726 ΔAbs/time/µg venom and 0.002857 ΔAbs/time/µg venom and 0.003095 ΔAbs/time/µg venom
same,"SVSP activity, rate of substrate consumption",[16],0.01667 ΔAbs/time/µg venom and 0.02387 ΔAbs/time/µg venom and 0.02696 ΔAbs/time/µg venom
same,effect on normal plasma clotting,plasma coagulation,dramatically inhibits plasma coagulation
same,protection against venom-induced lethality,"E. ocellatus venom [17]; 45 µg E. ocellatus venom preincubated with 60 µg of each drug, i.v., 6 h",no evident efficacy
same,"thrombin-antithrombin (TAT) levels, range in group","E. ocellatus venom [17]; plasma after euthanasia, E. ocellatus venom + 60 µg of each drug, venom-only mean 1127.3, normal mice 10.2–15.9",543.9 to 859.1 ng/mL
same,half-life,[18],~ 8 min
